Source: patent publication US5268386A, “Certain 3,4-dihydro 4-oxospiro [2H-1 benzopyrans] useful for treating hyperuricemia” (Shionogi & Co., Ltd., priority 1989, dated 1993)

Columns and labels:
uric acid clearance = experiment: Accelerated uric acid clearance in rats caused by administration of compound (I); format: in vivo; settings: male rats, mean of four measurements minus control value
Source text: Accelerated uric acid clearance in rats caused by administration of compound (I).
Nine-week-old male rats were employed for the test. As a pre-treatment for measuring uric acid clearance and inulin clearance, each animal was anesthetized with pentobarbital sodium, and canulae were placed into the right femoral artery (for blood collection), left femoral vein (for drug infusion), and urinary bladder (for urine collection) of each animal. 60% Urethane was subcutaneously administered to each animal at a dose of 2 ml/kg body weight and then 1.7% potassium oxonate/1.5% inulin/4% mannitol/0.9% saline solution was intravenously administered. After that, 0.5% pottasium oxonate/4% mannitol/1.5% inulin/0.9% saline was infused to each animal at a flow rate of 0.05 ml per minute on a hot plate kept at 30° C. Thirty minutes later, 0.9% saline was intraperitonealy administered at 4 ml/kg body weight. After the equilibrium for another 30 minutes, arterial blood (0.2 ml each) samples were collected 6 times at every 20 minute interval and five 20-minute urine samples were collected. Immediately after the collection of every blood sample, the serum was separated therefrom, and the serum samples and the urine samples were stored in a refrigerator.
Immediately after the first collection of the urine sample, the test compound suspended in 1% gum arabic was intraperitoneally administered at 2 ml/kg body weight.
Uric acid both in the serum and in the urine was quantitatively analyzed by the method of Yonetani et al's. [Yonetani, Y.; Ishii, M.; Iwaki, K., Japanese J. Pharmacology 30, 829-840 (1980).] Inulin was also done substantially by the method of Vurek's and Pegram's [Vurek, G G., Pegram, S.E., Anal.Biochem., 16, 409-419 (1966}]. In order to analyze uric acid, 0.2 ml of diluted solution of deproteinized serum or urine was admixed with 2.5 ml of 0.4% dimedon/orthphosphoric acid solution and the resulting mixture was heated in a hot bath for 5 minutes. The mixture was then cooled in ice-cold water and the fluorescence was measured at 400 nm in the excitation wave length at 360 nm. Control experiments were carried out using an equivalent amount of positive control compounds, ([5-chloro-3-(2-methylphenyl)-4-oxo-4H-1-benzopyran-7-yl] oxy)acetic acid and benzbromarone.
a) Increment of urinary uric acid was calculated by subtracting the control value from the mean value of four measurements after the administration of test compound.
b) Increment of fractional excretion of uric acid [Uric acid clearance/inulin clearance (i.e., glomerular filtration rate)] was calculated by subtracting the control value from the mean value of four measurements after the administration of test compound.

[1] = molecular target: T1, xanthine oxidase (milk xanthine oxidase) (Bos taurus, UniProt P80457); experiment: Evaluation of xanthine oxidase inhibition activity; format: biochemical; settings: phosphate buffer pH=8, absorbance at 293 nm, 10 minutes, read-out: IC50 (50% inhibition rate)
T1 construct: purchased Boelinger Manheim; host or cells: milk
T1 sequence (P80457 whole entry): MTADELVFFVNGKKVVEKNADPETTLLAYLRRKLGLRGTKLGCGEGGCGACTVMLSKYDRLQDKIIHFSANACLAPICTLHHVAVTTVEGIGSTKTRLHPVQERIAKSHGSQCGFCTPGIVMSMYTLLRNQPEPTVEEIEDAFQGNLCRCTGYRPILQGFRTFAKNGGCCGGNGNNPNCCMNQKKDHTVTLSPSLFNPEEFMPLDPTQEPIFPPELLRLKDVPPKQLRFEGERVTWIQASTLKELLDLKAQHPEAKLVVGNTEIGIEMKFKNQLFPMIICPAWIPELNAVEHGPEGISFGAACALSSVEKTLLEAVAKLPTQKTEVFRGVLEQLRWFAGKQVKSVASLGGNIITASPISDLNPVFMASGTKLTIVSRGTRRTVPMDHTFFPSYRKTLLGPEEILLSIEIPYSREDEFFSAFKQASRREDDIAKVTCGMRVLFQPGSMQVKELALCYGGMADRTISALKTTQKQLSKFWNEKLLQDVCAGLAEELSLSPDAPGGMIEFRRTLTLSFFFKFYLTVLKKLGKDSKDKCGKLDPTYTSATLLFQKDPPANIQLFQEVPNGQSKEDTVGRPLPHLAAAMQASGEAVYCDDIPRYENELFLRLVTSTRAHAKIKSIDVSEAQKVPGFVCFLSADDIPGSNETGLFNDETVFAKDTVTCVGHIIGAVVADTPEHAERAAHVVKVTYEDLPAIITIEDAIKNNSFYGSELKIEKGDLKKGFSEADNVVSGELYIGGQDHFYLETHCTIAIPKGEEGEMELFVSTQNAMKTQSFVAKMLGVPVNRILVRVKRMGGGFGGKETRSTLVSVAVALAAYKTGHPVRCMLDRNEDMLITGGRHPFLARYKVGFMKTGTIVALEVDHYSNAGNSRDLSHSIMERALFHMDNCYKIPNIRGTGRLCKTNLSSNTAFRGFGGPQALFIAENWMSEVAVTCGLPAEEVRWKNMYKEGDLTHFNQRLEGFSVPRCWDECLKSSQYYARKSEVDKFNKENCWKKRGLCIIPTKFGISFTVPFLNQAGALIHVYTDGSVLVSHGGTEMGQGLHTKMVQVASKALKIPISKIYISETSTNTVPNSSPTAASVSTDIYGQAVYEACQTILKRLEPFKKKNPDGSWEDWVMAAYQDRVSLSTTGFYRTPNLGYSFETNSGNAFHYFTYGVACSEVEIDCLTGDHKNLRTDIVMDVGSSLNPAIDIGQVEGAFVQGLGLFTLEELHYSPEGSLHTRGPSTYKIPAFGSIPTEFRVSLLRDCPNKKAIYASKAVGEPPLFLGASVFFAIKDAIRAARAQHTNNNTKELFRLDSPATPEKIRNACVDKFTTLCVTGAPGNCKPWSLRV
Method: A mixture of 0.05M phosphate buffer (pH=8, 2 ml), 5.0×10^-4 M xanthine solution (0.5 ml), and an aqueous solution of a test compound (0.3 ml) was charged in a cell for the spectrophotometer. An aqueous solution of xanthine oxidase (200 times dilution, Boelinger Manheim, milk xanthine oxidase) (0.2 ml) was added to the mixture. The absorbance at 293 nm was measured before, and 10 minutes after, the addition of xanthine. The increase in the two measurements is attributable to the amount of synthesized uric acid. Control experiment was carried out using water instead of the test compound solution.

Row | SMILES | ΔUuaV (increment of urinary uric acid) (uric acid clearance; dose 10 mg/kg intraperitoneal) | also measured
1 | O=C(O)COc1cc(Cl)c2c(c1Cl)OC1(CCCCC1)CC2=O [Example 11] | 0.022 mg/kg-min | –
2 | COc1cc(OCC(=O)O)cc2c1C(=O)CC1(CCCCC1)O2 [Example 21, {(5-Methoxy-3,4-dihydro-4-oxospiro[2H-1-benzopyran-2,1'-cyclohexan]-7-yl)oxy}acetic acid] | 0.046 mg/kg-min | IC50 [1]: 65 µM
3 | CCOc1cc(OCC(=O)O)cc2c1C(=O)CC1(CCCCC1)O2 [Example 22] | 0.029 mg/kg-min | –
4 | O=C(O)COc1cc(OCc2ccccc2)c2c(c1)OC1(CCCCC1)CC2=O [Example 23] | 0.051 mg/kg-min | –
5 | CC(C)Oc1cc(OCC(=O)O)cc2c1C(=O)CC1(CCCCC1)O2 [Example 24] | 0.024 mg/kg-min | –
6 | C=CCOc1cc(OCC(=O)O)cc2c1C(=O)CC1(CCCCC1)O2 [Example 25] | 0.043 mg/kg-min | –
7 | COc1cc(OCC(=O)O)cc2c1C(=O)C(C)C1(CCCCC1)O2 (stereo not shown) [Example 30] | 0.036 mg/kg-min | –
8 | COc1cc(OCC(=O)O)cc2c1C(=O)CC(C)(C)O2 [Example 33] | – | ΔUuaV (increment of urinary uric acid) (uric acid clearance; dose 50 mg/kg intraperitoneal): 0.047 mg/kg-min
9 | COc1c(OCC(=O)O)ccc2c1OC1(CCCCC1)CC2=O [Example 34] | 0.040 mg/kg-min | –
10 | O=C(O)COc1cc(O)c2c(c1)SC1(CCCCC1)CC2=O [Example 49, 2-{(5-Hydroxy-3,4-dihydro-4-oxospiro[2H-1-benzothiine-2,1'-cyclohexan]-7-yl)oxy}acetic acid] | 0.082 mg/kg-min | –
11 | COc1cc(OCC(=O)O)cc2c1C1(CC3(CCCCC3)O2)SCCS1 [Example 54, {(5-Methoxy-3,4-dihydrodispiro[2H-1-benzopyran-2,1'-cyclohexan-4,2"-[1,3]dithiolan]-7-yl)oxy}acetic acid] | 0.039 mg/kg-min | –
12 | COc1cc(OCC(=O)OCn2ncc3c(=O)[nH]cnc32)cc2c1C(=O)CC1(CCCCC1)O2 [Example 61] | – | ΔUuaV (increment of urinary uric acid) (uric acid clearance; dose 25 mg/kg intraperitoneal): -0.006 mg/kg-min
